From paper PMC8885417, “Pharmacological targeting of MTHFD2 suppresses acute myeloid leukemia by inducing thymidine depletion and replication stress” (Nature Cancer, 2022)
Values belong to the compound of their own block, whether it stands above or below them.

Legend:
Adenosine A2A = molecular target: T1, Adenosine A2A (Homo sapiens, UniProt P29274); experiment: biochemical; set-up: Eurofins SafetyScreen44 panel of binding and enzyme assays, mean per cent inhibition of duplicate; details: read-out: Inhibition (%) at 10 µM TH9619
T1 construct: gene ADORA2A
From the text: (§1) Bars represent the mean change in protein melting temperature (ΔTm) of one experiment performed in triplicate. […] Bars represent mean inhibition in percentage of one experiment performed in duplicate.

Adrenergic ß1 = molecular target: T2, Adrenergic ß1 (Homo sapiens, UniProt P08588); experiment: biochemical; set-up: Eurofins SafetyScreen44 panel of binding and enzyme assays, mean per cent inhibition of duplicate; details: read-out: Inhibition (%) at 10 µM TH9619
T2 construct: gene ADRB1
From the text: as §1

Adrenergic ß2 = molecular target: T3, Adrenergic ß2 (Homo sapiens, UniProt P07550); experiment: biochemical; set-up: Eurofins SafetyScreen44 panel of binding and enzyme assays, mean per cent inhibition of duplicate; details: read-out: Inhibition (%) at 10 µM TH9619
T3 construct: gene ADRB2
From the text: as §1

Adrenergic α1A = molecular target: T4, Adrenergic α1A (Homo sapiens, UniProt P35348); experiment: biochemical; set-up: Eurofins SafetyScreen44 panel of binding and enzyme assays, mean per cent inhibition of duplicate; details: read-out: Inhibition (%) at 10 µM TH9619
T4 construct: gene ADRA1A
From the text: as §1

Adrenergic α2A = molecular target: T5, Adrenergic α2A (Homo sapiens, UniProt P08913); experiment: biochemical; set-up: Eurofins SafetyScreen44 panel of binding and enzyme assays, mean per cent inhibition of duplicate; details: read-out: Inhibition (%) at 10 µM TH9619
T5 construct: gene ADRA2A
From the text: as §1

Androgen (Testosterone) = molecular target: T6, Androgen (Testosterone) (Homo sapiens, UniProt P10275); experiment: biochemical; set-up: Eurofins SafetyScreen44 panel of binding and enzyme assays, mean per cent inhibition of duplicate; details: read-out: Inhibition (%) at 10 µM TH9619
T6 construct: gene AR
From the text: as §1

Cannabinoid CB1 = molecular target: T7, Cannabinoid CB1 (Homo sapiens, UniProt P21554); experiment: biochemical; set-up: Eurofins SafetyScreen44 panel of binding and enzyme assays, mean per cent inhibition of duplicate; details: read-out: Inhibition (%) at 10 µM TH9619
T7 construct: gene CNR1
From the text: as §1

Cannabinoid CB2 = molecular target: T8, Cannabinoid CB2 (Homo sapiens, UniProt P34972); experiment: biochemical; set-up: Eurofins SafetyScreen44 panel of binding and enzyme assays, mean per cent inhibition of duplicate; details: read-out: Inhibition (%) at 10 µM TH9619
T8 construct: gene CNR2
From the text: as §1

[1] = molecular target: T9, Cholecystokinin CCK1 (CCKA) (Homo sapiens, UniProt P32238); experiment: biochemical; set-up: Eurofins SafetyScreen44 panel of binding and enzyme assays, mean per cent inhibition of duplicate; details: read-out: Inhibition (%) at 10 µM TH9619
T9 construct: gene CCKAR
From the text: as §1

[2] = molecular target: T10, Cholinesterase,Acetyl, ACES (Homo sapiens, UniProt P22303); experiment: biochemical; set-up: Eurofins SafetyScreen44 panel of binding and enzyme assays, mean per cent inhibition of duplicate; details: read-out: Inhibition (%) at 10 µM TH9619
T10 construct: gene ACHE
From the text: as §1

Cyclooxygenase COX-1 = molecular target: T11, Cyclooxygenase COX-1 (Homo sapiens, UniProt P23219); experiment: biochemical; set-up: Eurofins SafetyScreen44 panel of binding and enzyme assays, mean per cent inhibition of duplicate; details: read-out: Inhibition (%) at 10 µM TH9619
T11 construct: gene PTGS1
From the text: as §1

Cyclooxygenase COX-2 = molecular target: T12, Cyclooxygenase COX-2 (Homo sapiens, UniProt P35354); experiment: biochemical; set-up: Eurofins SafetyScreen44 panel of binding and enzyme assays, mean per cent inhibition of duplicate; details: read-out: Inhibition (%) at 10 µM TH9619
T12 construct: gene PTGS2
From the text: as §1

Dopamine D1 = molecular target: T13, Dopamine D1 (Homo sapiens, UniProt P21728); experiment: biochemical; set-up: Eurofins SafetyScreen44 panel of binding and enzyme assays, mean per cent inhibition of duplicate; details: read-out: Inhibition (%) at 10 µM TH9619
T13 construct: gene DRD1
From the text: as §1

Dopamine D2S = molecular target: T14, Dopamine D2S (Homo sapiens, UniProt P14416); experiment: biochemical; set-up: Eurofins SafetyScreen44 panel of binding and enzyme assays, mean per cent inhibition of duplicate; details: read-out: Inhibition (%) at 10 µM TH9619
T14 construct: gene DRD2; isoform D2S (short)
From the text: as §1

Endothelin ETA = molecular target: T15, Endothelin ETA (Homo sapiens, UniProt P25101); experiment: biochemical; set-up: Eurofins SafetyScreen44 panel of binding and enzyme assays, mean per cent inhibition of duplicate; details: read-out: Inhibition (%) at 10 µM TH9619
T15 construct: gene EDNRA
From the text: as §1

Glucocorticoid = molecular target: T16, Glucocorticoid (Homo sapiens, UniProt P04150); experiment: biochemical; set-up: Eurofins SafetyScreen44 panel of binding and enzyme assays, mean per cent inhibition of duplicate; details: read-out: Inhibition (%) at 10 µM TH9619
T16 construct: gene NR3C1
From the text: as §1

Histamine H1 = molecular target: T17, Histamine H1 (Homo sapiens, UniProt P35367); experiment: biochemical; set-up: Eurofins SafetyScreen44 panel of binding and enzyme assays, mean per cent inhibition of duplicate; details: read-out: Inhibition (%) at 10 µM TH9619
T17 construct: gene HRH1
From the text: as §1

Histamine H2 = molecular target: T18, Histamine H2 (Homo sapiens, UniProt P25021); experiment: biochemical; set-up: Eurofins SafetyScreen44 panel of binding and enzyme assays, mean per cent inhibition of duplicate; details: read-out: Inhibition (%) at 10 µM TH9619
T18 construct: gene HRH2
From the text: as §1

Monoamine Oxidase MAO-A = molecular target: T19, Monoamine Oxidase MAO-A (Homo sapiens, UniProt P21397); experiment: biochemical; set-up: Eurofins SafetyScreen44 panel of binding and enzyme assays, mean per cent inhibition of duplicate; details: read-out: Inhibition (%) at 10 µM TH9619
T19 construct: gene MAOA
From the text: as §1

Muscarinic M1 = molecular target: T20, Muscarinic M1 (Homo sapiens, UniProt P11229); experiment: biochemical; set-up: Eurofins SafetyScreen44 panel of binding and enzyme assays, mean per cent inhibition of duplicate; details: read-out: Inhibition (%) at 10 µM TH9619
T20 construct: gene CHRM1
From the text: as §1

Muscarinic M2 = molecular target: T21, Muscarinic M2 (Homo sapiens, UniProt P08172); experiment: biochemical; set-up: Eurofins SafetyScreen44 panel of binding and enzyme assays, mean per cent inhibition of duplicate; details: read-out: Inhibition (%) at 10 µM TH9619
T21 construct: gene CHRM2
From the text: as §1

Muscarinic M3 = molecular target: T22, Muscarinic M3 (Homo sapiens, UniProt P20309); experiment: biochemical; set-up: Eurofins SafetyScreen44 panel of binding and enzyme assays, mean per cent inhibition of duplicate; details: read-out: Inhibition (%) at 10 µM TH9619
T22 construct: gene CHRM3
From the text: as §1

[3] = molecular target: T23, Nicotinic Acetylcholine a4ß2, Cytisine (Homo sapiens, UniProt P17787+P43681); experiment: biochemical; set-up: Eurofins SafetyScreen44 panel of binding and enzyme assays, mean per cent inhibition of duplicate; details: read-out: Inhibition (%) at 10 µM TH9619
T23 construct: gene CHRNB2; cytisine site
From the text: as §1

Opiate µ (OP3, MOP) = molecular target: T24, Opiate µ (OP3, MOP) (Homo sapiens, UniProt P35372); experiment: biochemical; set-up: Eurofins SafetyScreen44 panel of binding and enzyme assays, mean per cent inhibition of duplicate; details: read-out: Inhibition (%) at 10 µM TH9619
T24 construct: gene OPRM1
From the text: as §1

Opiate κ (OP2, KOP) = molecular target: T25, Opiate κ (OP2, KOP) (Homo sapiens, UniProt P41145); experiment: biochemical; set-up: Eurofins SafetyScreen44 panel of binding and enzyme assays, mean per cent inhibition of duplicate; details: read-out: Inhibition (%) at 10 µM TH9619
T25 construct: gene OPRK1
From the text: as §1

Phosphodiesterase PDE3A = Phosphodiesterase PDE3A (Homo sapiens, UniProt Q14432); experiment: biochemical; set-up: Eurofins SafetyScreen44 panel of binding and enzyme assays, mean per cent inhibition of duplicate; details: read-out: Inhibition (%) at 10 µM TH9619
From the text: as §1

Phosphodiesterase PDE4D2 = molecular target: T26, Phosphodiesterase PDE4D2 (Homo sapiens, UniProt Q08499); experiment: biochemical; set-up: Eurofins SafetyScreen44 panel of binding and enzyme assays, mean per cent inhibition of duplicate; details: read-out: Inhibition (%) at 10 µM TH9619
T26 construct: gene PDE4D; isoform PDE4D2
From the text: as §1

[4] = molecular target: T27, Potassium Channel hERG, [3H]Dofetilide (Homo sapiens, UniProt Q12809); experiment: in vitro; set-up: Eurofins SafetyScreen44 panel of binding and enzyme assays, mean per cent inhibition of duplicate
T27 construct: gene KCNH2; dofetilide site
From the text: as §1

[5] = molecular target: Protein Tyrosine Kinase, LCK (Homo sapiens, UniProt P06239); experiment: biochemical; set-up: Eurofins SafetyScreen44 panel of binding and enzyme assays, mean per cent inhibition of duplicate; details: read-out: Inhibition (%) at 10 µM TH9619
From the text: as §1

[6] = molecular target: T28, Serotonin (5-Hydroxytryptamine) 5-HT1A (Homo sapiens, UniProt P08908); experiment: biochemical; set-up: Eurofins SafetyScreen44 panel of binding and enzyme assays, mean per cent inhibition of duplicate; details: read-out: Inhibition (%) at 10 µM TH9619
T28 construct: gene HTR1A
From the text: as §1

[7] = molecular target: T29, Serotonin (5-Hydroxytryptamine) 5-HT1B (Homo sapiens, UniProt P28222); experiment: biochemical; set-up: Eurofins SafetyScreen44 panel of binding and enzyme assays, mean per cent inhibition of duplicate; details: read-out: Inhibition (%) at 10 µM TH9619
T29 construct: gene HTR1B
From the text: as §1

[8] = molecular target: T30, Serotonin (5-Hydroxytryptamine) 5-HT2B (Homo sapiens, UniProt P41595); experiment: biochemical; set-up: Eurofins SafetyScreen44 panel of binding and enzyme assays, mean per cent inhibition of duplicate; details: read-out: Inhibition (%) at 10 µM TH9619
T30 construct: gene HTR2B
From the text: as §1

[9] = molecular target: T31, Serotonin (5-Hydroxytryptamine) 5-HT3 (Homo sapiens, UniProt P46098); experiment: biochemical; set-up: Eurofins SafetyScreen44 panel of binding and enzyme assays, mean per cent inhibition of duplicate; details: read-out: Inhibition (%) at 10 µM TH9619
T31 construct: gene HTR3A
From the text: as §1

[10] = molecular target: T32, Transporter, Dopamine (DAT) (Homo sapiens, UniProt Q01959); experiment: biochemical; set-up: Eurofins SafetyScreen44 panel of binding and enzyme assays, mean per cent inhibition of duplicate; details: read-out: Inhibition (%) at 10 µM TH9619
T32 construct: gene SLC6A3
From the text: as §1

[11] = molecular target: T33, Transporter, Norepinephrine (NET) (Homo sapiens, UniProt P23975); experiment: biochemical; set-up: Eurofins SafetyScreen44 panel of binding and enzyme assays, mean per cent inhibition of duplicate; details: read-out: Inhibition (%) at 10 µM TH9619
T33 construct: gene SLC6A2
From the text: as §1

[12] = molecular target: T34, Transporter, Serotonin (5-Hydroxytryptamine) (SERT) (Homo sapiens, UniProt P31645); experiment: biochemical; set-up: Eurofins SafetyScreen44 panel of binding and enzyme assays, mean per cent inhibition of duplicate; details: read-out: Inhibition (%) at 10 µM TH9619
T34 construct: gene SLC6A4
From the text: as §1

Vasopressin V1A = molecular target: T35, Vasopressin V1A (Homo sapiens, UniProt P37288); experiment: biochemical; set-up: Eurofins SafetyScreen44 panel of binding and enzyme assays, mean per cent inhibition of duplicate; details: read-out: Inhibition (%) at 10 µM TH9619
T35 construct: gene AVPR1A
From the text: as §1

MTHFD2L = MTHFD2L (Homo sapiens, UniProt Q9H903); experiment: biochemical activity assay; details: read-out: MTHFD2L IC50
MTHFD1-(DC) = molecular target: T36, MTHFD1-(DC) (Homo sapiens, UniProt P11586); experiment: biochemical activity assay
T36 construct: dehydrogenase/cyclohydrolase (DC) domain

MTHFD2 = MTHFD2 (Homo sapiens, UniProt P13995); experiment: cocrystal structure with NAD+; enzymatic IC50; CETSA; assay type: biochemical
Sequence of MTHFD2 (P13995 36-350): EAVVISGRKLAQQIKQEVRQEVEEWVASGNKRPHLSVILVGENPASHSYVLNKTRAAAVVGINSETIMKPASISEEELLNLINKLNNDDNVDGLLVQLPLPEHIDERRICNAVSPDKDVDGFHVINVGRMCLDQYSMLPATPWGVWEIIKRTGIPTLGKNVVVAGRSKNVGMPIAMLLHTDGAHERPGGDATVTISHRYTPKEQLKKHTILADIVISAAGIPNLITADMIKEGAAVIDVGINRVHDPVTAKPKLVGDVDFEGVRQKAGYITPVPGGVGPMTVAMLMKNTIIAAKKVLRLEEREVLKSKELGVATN

T5 sequence (P08913 whole entry): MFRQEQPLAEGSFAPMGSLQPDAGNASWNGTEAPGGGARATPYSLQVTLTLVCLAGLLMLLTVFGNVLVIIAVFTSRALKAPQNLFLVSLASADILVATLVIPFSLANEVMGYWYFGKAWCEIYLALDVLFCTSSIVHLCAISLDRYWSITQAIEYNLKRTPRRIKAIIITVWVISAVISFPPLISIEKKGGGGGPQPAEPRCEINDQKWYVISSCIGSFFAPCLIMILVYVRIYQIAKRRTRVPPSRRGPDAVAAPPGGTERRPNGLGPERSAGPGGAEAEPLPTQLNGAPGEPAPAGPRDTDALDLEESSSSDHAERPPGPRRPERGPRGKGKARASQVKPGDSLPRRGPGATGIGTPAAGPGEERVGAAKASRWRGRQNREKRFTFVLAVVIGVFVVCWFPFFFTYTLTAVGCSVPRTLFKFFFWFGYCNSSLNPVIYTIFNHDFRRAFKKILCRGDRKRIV
T15 sequence (P25101 whole entry): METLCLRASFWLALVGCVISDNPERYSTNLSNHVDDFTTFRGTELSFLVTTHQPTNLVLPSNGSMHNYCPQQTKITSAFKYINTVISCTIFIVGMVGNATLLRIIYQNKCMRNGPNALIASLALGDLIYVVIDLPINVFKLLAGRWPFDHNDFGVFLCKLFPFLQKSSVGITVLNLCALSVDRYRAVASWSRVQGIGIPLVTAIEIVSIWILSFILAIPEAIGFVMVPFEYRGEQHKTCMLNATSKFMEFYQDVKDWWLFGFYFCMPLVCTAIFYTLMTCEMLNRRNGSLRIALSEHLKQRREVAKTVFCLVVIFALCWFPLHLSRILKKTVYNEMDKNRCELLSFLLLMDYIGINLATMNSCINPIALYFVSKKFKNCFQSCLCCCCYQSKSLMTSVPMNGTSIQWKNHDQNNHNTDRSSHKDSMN
T26 sequence (Q08499 whole entry, canonical isoform): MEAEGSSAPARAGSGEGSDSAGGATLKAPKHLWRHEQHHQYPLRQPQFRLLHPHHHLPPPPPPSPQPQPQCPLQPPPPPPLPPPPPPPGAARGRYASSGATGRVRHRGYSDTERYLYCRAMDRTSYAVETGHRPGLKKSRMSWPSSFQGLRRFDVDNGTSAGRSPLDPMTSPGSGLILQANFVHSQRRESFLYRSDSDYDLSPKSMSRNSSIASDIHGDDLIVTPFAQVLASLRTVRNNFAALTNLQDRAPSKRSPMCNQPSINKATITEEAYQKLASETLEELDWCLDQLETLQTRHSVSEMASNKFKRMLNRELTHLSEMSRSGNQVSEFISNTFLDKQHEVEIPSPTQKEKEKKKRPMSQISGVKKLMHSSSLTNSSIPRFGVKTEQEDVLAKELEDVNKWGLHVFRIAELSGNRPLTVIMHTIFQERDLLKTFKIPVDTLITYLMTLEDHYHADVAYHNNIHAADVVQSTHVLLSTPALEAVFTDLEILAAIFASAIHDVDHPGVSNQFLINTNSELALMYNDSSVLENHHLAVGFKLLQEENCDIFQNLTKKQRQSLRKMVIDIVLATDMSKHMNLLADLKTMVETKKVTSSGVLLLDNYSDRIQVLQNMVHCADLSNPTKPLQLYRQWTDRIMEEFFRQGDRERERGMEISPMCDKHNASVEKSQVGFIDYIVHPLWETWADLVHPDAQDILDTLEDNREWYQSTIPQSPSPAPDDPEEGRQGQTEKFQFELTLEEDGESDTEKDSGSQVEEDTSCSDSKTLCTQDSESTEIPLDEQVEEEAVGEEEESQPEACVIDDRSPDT
T35 sequence (P37288 whole entry): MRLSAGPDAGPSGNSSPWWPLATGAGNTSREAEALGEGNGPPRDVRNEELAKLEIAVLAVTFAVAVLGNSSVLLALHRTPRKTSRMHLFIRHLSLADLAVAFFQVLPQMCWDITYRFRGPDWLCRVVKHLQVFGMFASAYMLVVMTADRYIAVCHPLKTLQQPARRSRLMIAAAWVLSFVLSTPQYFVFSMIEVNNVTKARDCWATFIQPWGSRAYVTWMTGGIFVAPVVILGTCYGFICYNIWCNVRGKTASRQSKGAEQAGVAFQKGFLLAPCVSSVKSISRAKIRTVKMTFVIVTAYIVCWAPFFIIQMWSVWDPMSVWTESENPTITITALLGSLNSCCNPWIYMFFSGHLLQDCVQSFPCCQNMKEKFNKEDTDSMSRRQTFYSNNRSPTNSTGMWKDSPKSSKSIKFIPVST
T1 sequence (P29274 whole entry): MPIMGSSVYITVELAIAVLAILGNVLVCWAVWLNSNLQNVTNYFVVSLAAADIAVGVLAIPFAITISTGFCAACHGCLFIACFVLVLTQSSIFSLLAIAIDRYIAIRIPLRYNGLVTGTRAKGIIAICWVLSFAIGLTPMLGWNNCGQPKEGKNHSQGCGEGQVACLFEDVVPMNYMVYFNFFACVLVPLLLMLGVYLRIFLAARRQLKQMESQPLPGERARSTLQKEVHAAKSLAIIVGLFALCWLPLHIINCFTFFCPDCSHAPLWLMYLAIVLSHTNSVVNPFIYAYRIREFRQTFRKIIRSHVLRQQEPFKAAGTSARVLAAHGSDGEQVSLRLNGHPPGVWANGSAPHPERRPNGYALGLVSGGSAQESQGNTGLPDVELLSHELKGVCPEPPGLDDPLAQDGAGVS
T29 sequence (P28222 whole entry): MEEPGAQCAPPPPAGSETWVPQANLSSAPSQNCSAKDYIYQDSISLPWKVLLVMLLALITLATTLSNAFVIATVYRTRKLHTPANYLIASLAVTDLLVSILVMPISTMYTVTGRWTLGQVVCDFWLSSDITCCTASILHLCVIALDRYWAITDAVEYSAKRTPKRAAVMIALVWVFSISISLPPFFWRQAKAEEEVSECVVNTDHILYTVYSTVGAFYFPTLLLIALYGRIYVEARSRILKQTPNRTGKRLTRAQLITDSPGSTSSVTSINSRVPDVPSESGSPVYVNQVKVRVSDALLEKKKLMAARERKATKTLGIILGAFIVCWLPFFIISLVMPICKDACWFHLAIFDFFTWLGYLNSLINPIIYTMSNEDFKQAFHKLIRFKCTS
T34 sequence (P31645 whole entry): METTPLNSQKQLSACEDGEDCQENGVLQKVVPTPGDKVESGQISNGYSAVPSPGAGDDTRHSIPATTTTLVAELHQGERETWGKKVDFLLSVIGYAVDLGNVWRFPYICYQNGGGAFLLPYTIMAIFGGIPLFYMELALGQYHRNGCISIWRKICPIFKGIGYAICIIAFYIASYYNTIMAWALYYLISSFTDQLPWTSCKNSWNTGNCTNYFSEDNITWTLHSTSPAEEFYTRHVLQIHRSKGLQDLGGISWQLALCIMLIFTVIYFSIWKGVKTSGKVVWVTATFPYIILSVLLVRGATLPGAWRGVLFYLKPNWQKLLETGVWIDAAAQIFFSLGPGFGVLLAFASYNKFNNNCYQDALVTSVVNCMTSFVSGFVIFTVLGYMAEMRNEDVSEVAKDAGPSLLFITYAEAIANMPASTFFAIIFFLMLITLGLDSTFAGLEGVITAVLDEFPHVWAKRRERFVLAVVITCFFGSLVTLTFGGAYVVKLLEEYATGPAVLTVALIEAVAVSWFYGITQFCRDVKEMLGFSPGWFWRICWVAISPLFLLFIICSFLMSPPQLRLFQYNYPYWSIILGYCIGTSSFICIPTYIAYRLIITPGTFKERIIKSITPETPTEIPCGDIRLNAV
T30 sequence (P41595 whole entry): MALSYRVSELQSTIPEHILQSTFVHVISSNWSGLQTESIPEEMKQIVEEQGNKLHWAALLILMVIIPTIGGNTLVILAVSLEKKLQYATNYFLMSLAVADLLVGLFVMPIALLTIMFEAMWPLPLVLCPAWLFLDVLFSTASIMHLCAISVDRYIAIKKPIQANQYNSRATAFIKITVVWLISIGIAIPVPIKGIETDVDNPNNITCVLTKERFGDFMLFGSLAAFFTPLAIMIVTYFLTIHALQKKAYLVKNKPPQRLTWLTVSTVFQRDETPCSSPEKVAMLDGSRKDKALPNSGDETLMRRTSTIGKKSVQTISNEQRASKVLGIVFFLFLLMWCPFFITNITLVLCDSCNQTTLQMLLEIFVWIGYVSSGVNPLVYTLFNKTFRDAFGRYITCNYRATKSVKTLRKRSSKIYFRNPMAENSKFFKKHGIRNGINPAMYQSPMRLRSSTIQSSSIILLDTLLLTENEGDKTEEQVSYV
T9 sequence (P32238 whole entry): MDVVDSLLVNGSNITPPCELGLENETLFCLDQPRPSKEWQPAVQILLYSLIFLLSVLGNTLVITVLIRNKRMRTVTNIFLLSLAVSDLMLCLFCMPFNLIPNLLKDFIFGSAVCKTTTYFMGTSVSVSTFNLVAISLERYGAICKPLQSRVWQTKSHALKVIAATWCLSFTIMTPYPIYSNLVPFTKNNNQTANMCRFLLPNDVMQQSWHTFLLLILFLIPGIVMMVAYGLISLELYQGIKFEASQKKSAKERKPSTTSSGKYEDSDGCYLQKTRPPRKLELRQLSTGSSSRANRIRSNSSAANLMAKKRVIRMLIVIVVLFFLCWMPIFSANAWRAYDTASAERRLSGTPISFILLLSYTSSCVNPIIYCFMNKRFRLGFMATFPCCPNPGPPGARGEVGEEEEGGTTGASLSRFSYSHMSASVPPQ

Compound: Nc1nc(N)c(CC(=O)Nc2cnc(C(=O)N[C@@H](CCC(=O)O)C(=O)O)c(F)c2)c(=O)[nH]1 [TH9619]
inhibition at 10 µM (Adenosine A2A): 11%
inhibition at 10 µM (Adrenergic ß1): 0%
inhibition at 10 µM (Adrenergic ß2): 1%
inhibition at 10 µM (Adrenergic α1A): 9%
inhibition at 10 µM (Adrenergic α2A): 9%
inhibition at 10 µM (Androgen (Testosterone)): 3%
inhibition at 10 µM (Cannabinoid CB1): 0%
inhibition at 10 µM (Cannabinoid CB2): -3%
inhibition at 10 µM [1]: 7%
inhibition at 10 µM [2]: 21%
inhibition at 10 µM (Cyclooxygenase COX-1): 9%
inhibition at 10 µM (Cyclooxygenase COX-2): 16%
inhibition at 10 µM (Dopamine D1): 5%
inhibition at 10 µM (Dopamine D2S): 1%
inhibition at 10 µM (Endothelin ETA): -7%
inhibition at 10 µM (Glucocorticoid): 3%
inhibition at 10 µM (Histamine H1): 7%
inhibition at 10 µM (Histamine H2): -6%
inhibition at 10 µM (Monoamine Oxidase MAO-A): 6%
inhibition at 10 µM (Muscarinic M1): -7%
inhibition at 10 µM (Muscarinic M2): -29%
inhibition at 10 µM (Muscarinic M3): -2%
inhibition at 10 µM [3]: 2%
inhibition at 10 µM (Opiate µ (OP3, MOP)): -10%
inhibition at 10 µM (Opiate κ (OP2, KOP)): 5%
inhibition at 10 µM (Phosphodiesterase PDE3A): -3%
inhibition at 10 µM (Phosphodiesterase PDE4D2): -1%
inhibition at 10 µM [4]: 5%
inhibition at 10 µM [5]: 1%
inhibition at 10 µM [6]: 0%
inhibition at 10 µM [7]: -8%
inhibition at 10 µM [8]: 1%
inhibition at 10 µM [9]: -4%
inhibition at 10 µM [10]: -7%
inhibition at 10 µM [11]: -12%
inhibition at 10 µM [12]: 5%
inhibition at 10 µM (Vasopressin V1A): -15%

IC50 (MTHFD2L): 27 nM
IC50 (MTHFD1-(DC)): 0.5 nM
IC50 (MTHFD2): 11 nM
Compound: TH9028
